Columns and labels:
[1] = tested on: MATSS: scented mayweed (Matricaria chamomilla), pineappleweed (Matricaria matricarioides); test: Post-emergent Test III, herbicidal activity in wheat and barley; type: in vivo; details: for pest or weed control at 35 g/ha: 35 g ai/ha; for pest or weed control at 70 g/ha: 70 g ai/ha; for GR50 MATSS / GR80 MATSS: probit analysis, 21 days after application; for GR50 MATSS: dose for growth reduction of 50 percent; for GR80 MATSS: dose for growth reduction of 80 percent
Outline: (§1)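 GR20, GR50, GR80 and GR90 come from probit analysis of visual injury scores (0 = none, 100 = complete kill) taken 21 d after treatment. Foliar application was by track sprayer delivering 187 L/ha at five rates, from high down to 1/16×, onto greenhouse plants at the 2–3 leaf stage, with solvent-blank controls.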

[2] = as above; type: in vivo, Lolium multiflorum, Lolium rigidum; details: Lolium multiflorum, post-emergence, 504 h, read-out: Visual Growth Reduction (%) 21 Days After Application LOLSS; for pest or weed control at 35 g/ha: 35 g ai/ha; for pest or weed control at 70 g/ha: 70 g ai/ha
Outline: as §1

[3] = tested on: KCHSC: kochia (Kochia scoparia); test: as above; type: in vivo; details: for pest or weed control at 35 g/ha: 35 g ai/ha; for pest or weed control at 70 g/ha: 70 g ai/ha; for GR50 KCHSC / GR80 KCHSC: probit analysis, 21 days after application; for GR50 KCHSC: dose for growth reduction of 50 percent; for GR80 KCHSC: dose for growth reduction of 80 percent
Outline: as §1

[4] = tested on: APESV: bentgrass (Apera spica-venti); test: as above; type: in vivo; details: for pest or weed control at 35 g/ha: 35 g ai/ha; for pest or weed control at 70 g/ha: 70 g ai/ha; for GR50 APESV / GR80 APESV: probit analysis, 21 days after application; for GR50 APESV: dose for growth reduction of 50 percent; for GR80 APESV: dose for growth reduction of 80 percent
Outline: as §1

[5] = tested on: LOLSS: ryegrass including, Italian ryegrass (Lolium multiflorum), rigid ryegrass (Lolium rigidum), annual ryegrass (Lolium multiflorum subsp. Gaudini); test: as above; type: in vivo; details: probit analysis, 21 days after application; for GR50 LOLSS: dose for growth reduction of 50 percent; for GR80 LOLSS: dose for growth reduction of 80 percent
Outline: as §1

[6] = tested on: BROTE: downy brome (Bromus tectorum); test: as above; type: in vivo; details: for pest or weed control at 35 g/ha: 35 g ai/ha; for pest or weed control at 70 g/ha: 70 g ai/ha; for GR50 BROTE / GR80 BROTE: probit analysis, 21 days after application; for GR50 BROTE: dose for growth reduction of 50 percent; for GR80 BROTE: dose for growth reduction of 80 percent
Outline: as §1

[7] = tested on: VERPE: bird's-eye speedwell (veronica persica); test: as above; type: in vivo
Outline: as §1

[8] = tested on: HORSS: barley, including spring and winter (Hordeum vulgare); test: as above; type: in vivo
Outline: as §1

[9] = tested on: SETVI: green foxtail (Setaria viridis); test: as above; type: in vivo
Outline: as §1

[10] = tested on: TRZSS: wheat, including spring and winter (Triticum aestivum); test: as above; type: in vivo
Outline: as §1

[11] = Matricaria chamomilla, post-emergence, 504 h, read-out: Visual Growth Reduction (%) 21 Days After Application MATSS
[12] = Bassia scoparia, post-emergence, 504 h, read-out: Visual Growth Reduction (%) 21 Days After Application KCHSC
[13] = Apera spica-venti, post-emergence, 504 h, read-out: Visual Growth Reduction (%) 21 Days After Application APESV
[14] = Bromus tectorum, post-emergence, 504 h, read-out: Visual Growth Reduction (%) 21 Days After Application BROTE
[15] = probit analysis, dose for growth reduction of 50 percent, 21 days after application
[16] = probit analysis, dose for growth reduction of 80 percent, 21 days after application
[17] = probit analysis, dose for growth reduction of 20 percent, 21 days after application, crop

With `Nc1c(F)c(-c2ccc(C(F)(F)F)c(F)c2F)nc(C(=O)O)c1Cl` [Compound 167] the pest or weed control at 35 g/ha [1, 11] was 75 to 84%, the pest or weed control at 70 g/ha [1, 11] was 85 to 94% and the “GR50 MATSS” value [1] was 24 g ai/ha. The “GR80 MATSS” value [1] was 48 g ai/ha, the pest or weed control at 35 g/ha [2] was 0 to 29% and the pest or weed control at 70 g/ha [2] was 0 to 29%. The pest or weed control at 35 g/ha [3, 12] was 60 to 74%, the pest or weed control at 70 g/ha [3, 12] was 75 to 84% and the “GR50 KCHSC” value [3] was 23 g ai/ha. For the same compound, the “GR80 KCHSC” value [3] was 52 g ai/ha, the pest or weed control at 35 g/ha [4, 13] was 75 to 84% and the pest or weed control at 70 g/ha [4, 13] was 85 to 94%. The “GR50 APESV” value [4] was 20 g ai/ha, the “GR80 APESV” value [4] was 46 g ai/ha and the “GR50 LOLSS” value [5] was >140 g ai/ha. For the same compound, the “GR80 LOLSS” value [5] was >140 g ai/ha, the pest or weed control at 35 g/ha [6, 14] was 30 to 44% and the pest or weed control at 70 g/ha [6, 14] was 75 to 84%. For the same compound, the “GR50 BROTE” value [6] was 43 g ai/ha and the “GR80 BROTE” value [6] was 81 g ai/ha.

Work on `COC(=O)c1nc(-c2ccc(Cl)c(F)c2)c(F)c(N)c1Cl` [Compound 216] yielded a pest or weed control at 35 g/ha ([7]; Veronica persica, post-emergence, 504 h, 35 g ai/ha, read-out: Visual Growth Reduction (%) 21 Days After Application VERPE) of 45 to 59%, a pest or weed control at 70 g/ha ([7]; Veronica persica, post-emergence, 504 h, 70 g ai/ha, read-out: Visual Growth Reduction (%) 21 Days After Application VERPE) of 60 to 74% and a pest or weed control at 140 g/ha ([7]; Veronica persica, post-emergence, 504 h, 140 g ai/ha, read-out: Visual Growth Reduction (%) 21 Days After Application VERPE) of 75 to 84%. For the same compound, the “GR50 VERPE” value [7, 15] was 32 g ai/ha, the “GR80 VERPE” value [7, 16] was >140 g ai/ha and the pest or weed control at 35 g/ha [1, 11] was 75 to 84%. The pest or weed control at 70 g/ha [1, 11] was 75 to 84%, the pest or weed control at 140 g/ha ([1]; Matricaria chamomilla, post-emergence, 504 h, 140 g ai/ha, read-out: Visual Growth Reduction (%) 21 Days After Application MATSS) was 85 to 94% and the “GR50 MATSS” value [1] was 10 g ai/ha. The “GR80 MATSS” value [1] was 62 g ai/ha, the pest or weed control at 35 g/ha [2] was 0 to 29% and the pest or weed control at 70 g/ha [2] was 30 to 44%. It also gave a pest or weed control at 140 g/ha ([2]; 140 g ai/ha) of 45 to 59%, a pest or weed control at 35 g/ha [3, 12] of 95 to 100% and a pest or weed control at 70 g/ha [3, 12] of 95 to 100%. The pest or weed control at 140 g/ha ([3]; Bassia scoparia, post-emergence, 504 h, 140 g ai/ha, read-out: Visual Growth Reduction (%) 21 Days After Application KCHSC) was 95 to 100%, the “GR50 KCHSC” value [3] was 1 g ai/ha and the “GR80 KCHSC” value [3] was 2 g ai/ha. The pest or weed control at 35 g/ha ([8]; Hordeum vulgare, post-emergence, 504 h, 35 g ai/ha, read-out: Visual Growth Reduction (%) 21 Days After Application HORSS) was 85 to 94%, the pest or weed control at 70 g/ha ([8]; Hordeum vulgare, post-emergence, 504 h, 70 g ai/ha, read-out: Visual Growth Reduction (%) 21 Days After Application HORSS) was 85 to 94% and the pest or weed control at 140 g/ha ([8]; Hordeum vulgare, post-emergence, 504 h, 140 g ai/ha, read-out: Visual Growth Reduction (%) 21 Days After Application HORSS) was 85 to 94%. For the same compound, the “GR20 HORSS” value [8, 17] was 1 g ai/ha, the pest or weed control at 35 g/ha [4, 13] was 85 to 94% and the pest or weed control at 70 g/ha [4, 13] was 85 to 94%. The pest or weed control at 140 g/ha ([4]; Apera spica-venti, post-emergence, 504 h, 140 g ai/ha, read-out: Visual Growth Reduction (%) 21 Days After Application APESV) was 95 to 100%, the “GR50 APESV” value [4] was 6 g ai/ha and the “GR80 APESV” value [4] was 20 g ai/ha. For the same compound, the pest or weed control at 35 g/ha ([9]; Setaria viridis, post-emergence, 504 h, 35 g ai/ha, read-out: Visual Growth Reduction (%) 21 Days After Application SETVI) was 60 to 74%, the pest or weed control at 70 g/ha ([9]; Setaria viridis, post-emergence, 504 h, 70 g ai/ha, read-out: Visual Growth Reduction (%) 21 Days After Application SETVI) was 75 to 84% and the pest or weed control at 140 g/ha ([9]; Setaria viridis, post-emergence, 504 h, 140 g ai/ha, read-out: Visual Growth Reduction (%) 21 Days After Application SETVI) was 85 to 94%. For the same compound, the “GR50 SETVI” value [9, 15] was 20 g ai/ha, the “GR80 SETVI” value [9, 16] was 64 g ai/ha and the “GR50 LOLSS” value [5] was 137 g ai/ha. The “GR80 LOLSS” value [5] was >140 g ai/ha, the pest or weed control at 35 g/ha [6, 14] was 30 to 44% and the pest or weed control at 70 g/ha [6, 14] was 45 to 59%. For the same compound, the pest or weed control at 140 g/ha ([6]; Bromus tectorum, post-emergence, 504 h, 140 g ai/ha, read-out: Visual Growth Reduction (%) 21 Days After Application BROTE) was 45 to 59%, the “GR50 BROTE” value [6] was 136 g ai/ha and the “GR80 BROTE” value [6] was >140 g ai/ha. For the same compound, the pest or weed control at 35 g/ha ([10]; Triticum aestivum, post-emergence, 504 h, 35 g ai/ha, read-out: Visual Growth Reduction (%) 21 Days After Application TRZSS) was 75 to 84%, the pest or weed control at 70 g/ha ([10]; Triticum aestivum, post-emergence, 504 h, 70 g ai/ha, read-out: Visual Growth Reduction (%) 21 Days After Application TRZSS) was 85 to 94% and the pest or weed control at 140 g/ha ([10]; Triticum aestivum, post-emergence, 504 h, 140 g ai/ha, read-out: Visual Growth Reduction (%) 21 Days After Application TRZSS) was 85 to 94%. For the same compound, the “GR20 TRZSS” value [10, 17] was 1 g ai/ha.

Reference: US9113629B2, “4-amino-6-(4-substituted-phenyl)-picolinates and 6-amino-2-(4-substituted-phenyl)-pyrimidine-4-carboxylates and their use as herbicides” (DOW AGROSCIENCES LLC, priority 2013, dated 2015)
